Reference: article PMC9101642 (Molecules, 2022)
Marks after values point to notes of the source that are not given here.

Tests used:
[1] = tested on: MCF-7 cells; assay: Cell cycle distribution by flow cytometry; format: cell-based, human; conditions: 24 h
[2] = tested on: Ishikawa endometrial adenocarcinoma cells; assay: Antiproliferative assay; format: cell-based; conditions: Homo sapiens, growth inhibition
[3] = tested on: MNU-induced breast cancer; assay: In vivo anticancer screening, MNU-induced mammary tumorigenesis; parameters: species or system female Wistar rats
[4] = rat, in vivo
[5] = tested on: MNU-induced breast cancer tissue; assay: Histopathology of breast sections; format: in vivo, Wistar rats
How it was run: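 Rats with MNU-induced breast cancer were given selected leads at two concentrations. Breast tissue was examined histopathologically for lobuloalveolar units and epithelial changes, with slides photographed at 200x.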

[6] = Liver oxidative stress markers after treatment of MNU-induced rats; format: in vivo, Wistar rats; parameters: CAT: unit not given here; conditions: liver; for CAT: catalase activity; for GSH: reduced glutathione; for SOD (U/mg): superoxide dismutase activity; for TP: total protein content
How it was run: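 Mammary tumours induced in rats by MNU 50 mg/kg i.p. at day 50; after two weeks, compounds given orally at 5 or 50 mg/kg once daily for six weeks. Serum AST, ALT (340 nm), ALP (405 nm) and bilirubin measured; liver homogenate GSH, CAT, MDA by colorimetry; plasma binding by ultrafiltration at 37°C with BCA protein read-out.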

[7] = target: T1, ERα (Homo sapiens, UniProt P03372); assay: ERα down-regulation immunofluorescence assay in MCF-7; format: cell-based; conditions: ERα downregulation measured in MCF-7; read-out: MCF-7 DR (IC50 nM)
T1 sequence (P03372 1-595): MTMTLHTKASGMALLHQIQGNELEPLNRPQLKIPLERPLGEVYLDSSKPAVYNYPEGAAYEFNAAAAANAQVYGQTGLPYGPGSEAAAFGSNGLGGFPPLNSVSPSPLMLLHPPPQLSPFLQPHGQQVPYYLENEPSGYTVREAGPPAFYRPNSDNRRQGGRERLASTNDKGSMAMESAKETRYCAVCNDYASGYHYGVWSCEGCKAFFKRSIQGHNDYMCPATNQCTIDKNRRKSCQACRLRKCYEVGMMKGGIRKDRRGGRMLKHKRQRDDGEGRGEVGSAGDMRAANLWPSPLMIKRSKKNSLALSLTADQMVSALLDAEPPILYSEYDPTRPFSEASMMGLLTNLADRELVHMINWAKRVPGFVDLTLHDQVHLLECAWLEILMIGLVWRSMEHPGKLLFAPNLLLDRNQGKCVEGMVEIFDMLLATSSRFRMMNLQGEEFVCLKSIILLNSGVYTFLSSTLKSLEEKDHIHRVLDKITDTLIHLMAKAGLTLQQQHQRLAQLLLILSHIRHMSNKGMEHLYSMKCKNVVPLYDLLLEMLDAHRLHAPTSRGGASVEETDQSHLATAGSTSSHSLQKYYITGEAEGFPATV

[8] = MTT antiproliferative assay (neutral control); conditions: human
[9] = tested on: p53 promoter activity (p21 promoter); assay: qChIP of ERα-p53 interaction on the p21 promoter in MCF-7; format: cell-based, human
[10] = tested on: progesterone receptor (PR); assay: ERα functional antagonism cell assay (PR as biomarker) in MCF-7; format: cell-based; conditions: Homo sapiens, MCF7; progesterone receptor as biomarker for ERα antagonism in MCF-7
[11] = tested on: MDA-MB-231 cell lines; assay: MTT antiproliferative assay; format: cell-based, human; conditions: Homo sapiens, MDA-MB-231; growth inhibition, 48 h; read-out: MDA-MB-231 (IC50 nM)
[12] = target: ERβ (Homo sapiens, UniProt Q92731); assay: Fluorescence polarization competition assay: antagonistic potency and relative binding affinity; conditions: for Ki: calculated antagonistic (inhibitory) constant, read-out: Ka ERβ; for IC50: concentration that antagonizes 50% of ERβ signaling activity, read-out: ERβ (IC50 nM); for logRBA ERβ: log of % relative binding affinity, estradiol = 100%
Chain of ERβ (Q92731 whole entry): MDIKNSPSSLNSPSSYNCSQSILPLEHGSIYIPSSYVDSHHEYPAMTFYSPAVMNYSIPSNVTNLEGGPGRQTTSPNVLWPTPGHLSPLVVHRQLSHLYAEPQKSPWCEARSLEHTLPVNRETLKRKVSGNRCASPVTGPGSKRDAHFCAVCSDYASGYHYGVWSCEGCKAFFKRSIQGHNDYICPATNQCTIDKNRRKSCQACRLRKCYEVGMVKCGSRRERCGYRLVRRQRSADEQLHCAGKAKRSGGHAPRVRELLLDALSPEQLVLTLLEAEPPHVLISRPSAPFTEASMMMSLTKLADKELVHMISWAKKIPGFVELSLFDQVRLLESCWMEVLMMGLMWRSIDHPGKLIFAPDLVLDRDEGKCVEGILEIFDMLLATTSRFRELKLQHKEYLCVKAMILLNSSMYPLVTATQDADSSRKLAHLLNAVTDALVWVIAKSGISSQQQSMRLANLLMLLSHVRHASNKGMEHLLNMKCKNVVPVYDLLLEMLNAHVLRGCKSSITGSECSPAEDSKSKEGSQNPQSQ

[13] = Pharmacokinetics study, oral bioavailability; conditions: rat
[14] = dose 50 mg/kg (compounds per os after MNU; MNU alone i.p.)

| SMILES | Cell Cycle (%) G0/G1 ([1]; 0.1 nM) | Cell Cycle (%) G2/M ([1]; 0.1 nM) | Cell Cycle (%) S ([1]; 0.1 nM) | Cell Cycle (%) G0/G1 ([1]; 1 nM) | Cell Cycle (%) G2/M ([1]; 1 nM) | Cell Cycle (%) S ([1]; 1 nM) | IC50 [2] | Tumor Burden (week) ([3]; dose 5 mg/kg per os after MNU) | Tumor Latency (week) ([3]; dose 5 mg/kg per os after MNU) | Tumor Volume (mm^3) ([3]; dose 5 mg/kg per os after MNU) | Tumor Burden (week) [3, 14] | Tumor Latency (week) [3, 14] | Tumor Volume (mm^3) [3, 14] | WL after MFD (day 1, mg) [4] | breast section histopathology ([5]; 5 mg/kg of bwt) | breast section histopathology ([5]; 50 mg/kg of bwt) | CAT ([6]; dose 5 mg/kg) | CAT ([6]; dose 50 mg/kg) | TBARS ([6]; dose 5 mg/kg) | TBARS ([6]; dose 50 mg/kg) | further results |
| --- | --- | --- | --- | --- | --- | --- | --- | --- | --- | --- | --- | --- | --- | --- | --- | --- | --- | --- | --- | --- | --- |
| CC(=O)c1cc(C(=O)O[C@@H]2/C=C/C(=O)O[C@@H](O)CCC/C=C/[C@@H]3C[C@H](O)C[C@H]32)ccc1OCCN1CC(C(=O)O)=CCC1=O [Compound 3DPQ-9, 1-(2-(2-acetyl-4-((((1R,2E,6R,10E,11aS,13S,14aR)-6,13-dihydroxy-4-oxo-4,6,7,8,9,11a,12,13,14,14a-decahydro-1H-cyclopenta[f][1]oxacyclotridecin-1-yl)oxy)carbonyl)phenoxy)ethyl)-6-oxo-1,2,5,6-tetrahydropyridine-3-carboxylic acid] | 71.47 ± 0.99 *^,†,‡,§ % | 15.56 ± 2.65 *^,†,‡,§ % | 12.97 ± 1.65 *^,†,‡,§ % | 75.93 ± 152 *^,†,‡,§ % | 10.40 ± 3.54 *^,†,‡,§ % | 13.68 ± 1.74 *^,†,‡,§ % | 0.89 ± 0.24 nM | 2.28 ± 0.47 *^,†,‡,‖ week | 12 *^,†,‡ week | 0.77 ± 0.32 *^,†,‡,‖ mm^3 | 1.14 ± 0.65 *^,†,§,┴ week | 15 *^,†,§ week | 0.40 ± 0.43 *^,†,§,┴ mm^3 | 315.54 ± 0.65 mg | lobuloalveolar unit (LaU) and cuboidal epithelial cells (CE) | lobuloalveolar unit (LaU) and cuboidal epithelial cells (CE) | 10.83±0.46 | 13.32±0.54 | 0.96 nmol/mg | 0.96 ± 0.24 nmol/mg | GSH ([6]; dose 5 mg/kg): 8.66 mg/g; GSH ([6]; dose 50 mg/kg): 8.89 mg/g; SOD (U/mg) ([6]; dose 5 mg/kg): 7.74±0.37 U/mg; SOD (U/mg) ([6]; dose 50 mg/kg): 14.43±0.35 U/mg; TP ([6]; dose 50 mg/kg): 39.43 g/L; IC50 [7]: > 100 nM; IC50 at 48 h ([8]; MRC-5 lung fibroblast cells): > 100 nM; p53 promoter activity, fold higher than the one provoked by Ral ([9]; higher concentration (1 nM)): 0.66 fold; p53 promoter activity, fold higher than the one provoked by Ral ([9]; lower concentration (0.1 nM)): 0.68 fold; IC50 [10]: > 100 nM; IC50 [11]: 81.63 ± 0.42 nM; Ki [12]: 46.9 nM; IC50 [12]: 83.56 ± 0.46 nM; logRBA ERβ [12]: 0.03 ^†,‡,§; BIO ([13]; oral 5 mg/kg): 94 ^‡; BIO ([13]; oral 50 mg/kg): 97 |
| CC(=O)c1cc(C(=O)O[C@@H]2/C=C/C(=O)O[C@@H](O)CCC/C=C/[C@@H]3C[C@H](O)C[C@H]32)ccc1OCCN1CCCC(O)C1=O (stereo partly drawn) [Compound 3DPQ-12, (1R,2E,6R,10E,11aS,13S,14aR)-6,13-dihydroxy-4-oxo-4,6,7,8,9,11a,12,13,14,14a-decahydro-1H-cyclopenta[f][1]oxacyclotridecin-1-yl 3-acetyl-4-(2-(3-hydroxy-2-oxopiperidin-1-yl)ethoxy)benzoate] | 77.83 ± 0.92 *^,†,‡,§ % | 5.21 ± 2.54 *^,†,‡,§ % | 16.96 ± 1.23 *^,†,‡,§ % | 80.29 ± 1.24 *^,†,‡,§ % | 2.05 ± 1.43 *^,†,‡,§ % | 17.67 ± 1.32 *^,†,‡,§ % | 0.77 ± 0.43 nM | 2.24 ± 0.54 *^,†,‡,‖ week | 12 *^,†,‡ week | 0.67 ± 0.22 *^,†,‡,‖ mm^3 | 0.94 ± 0.35 *^,†,§,┴ week | 15 *^,†,§ week | 0.34 ± 0.11 *^,†,§,┴ mm^3 | 305.06 ± 0.94 mg | lobuloalveolar unit (LaU) and cuboidal epithelial cells (CE) | lobuloalveolar unit (LaU) and cuboidal epithelial cells (CE) | 14.55±0.51 | 19.46±0.75 | 0.92 nmol/mg | 1.05 nmol/mg | GSH ([6]; dose 5 mg/kg): 8.96 mg/g; GSH ([6]; dose 50 mg/kg): 9.02 mg/g; SOD (U/mg) ([6]; dose 5 mg/kg): 5.43±0.25 U/mg; SOD (U/mg) ([6]; dose 50 mg/kg): 13.32±0.43 U/mg; TP ([6]; dose 5 mg/kg): 336.12 g/L; TP ([6]; dose 50 mg/kg): 389.35 g/L; IC50 [7]: > 100 nM; IC50 at 48 h [8]: > 100 nM; p53 promoter activity, fold higher than the one provoked by Ral ([9]; higher concentration (1 nM)): 0.55 fold; p53 promoter activity, fold higher than the one provoked by Ral ([9]; lower concentration (0.1 nM)): 0.65 fold; IC50 [10]: > 100 nM; IC50 [11]: 82.84 ± 0.61 nM; Ki [12]: 50.3 nM; IC50 [12]: 89.45 ± 0.31 nM; logRBA ERβ [12]: 0.00 ^†,‡,§; BIO ([13]; oral 5 mg/kg): 93 ^‡; BIO ([13]; oral 50 mg/kg): 96 |
